Measured values: patent US10441562B2, “Aromatic farnesyl compound and application thereof” (INSTITUTE OF MICROBIOLOGY, CHINESE ACADEMY OF SCIENCES, priority 2015, dated 2019)
Marks after values point to notes of the source that are not given here.

Experiments:
Type in all cases: in vivo
[1] = body weight of hyperglycemia KK-A^y mice
Procedure: (§1) Materials: accurately weigh the 2 compounds S13 and S28 discussed in example 2, and then add 0.5% CMC-Na to make the solution of 5 mg/ml used for activity test. KK-A^y mice are purchased from Chinese Academy of Medical Sciences & Peking Union Medical College Institute of Animal Studies. Experiments are carried out after adapting to the environment (T=20-24° C., constant humidity: 50-60%, 12 hours light exposure (8:00-20:00), soundproof, free feeding and drinking) for 1 week. Glucometer is purchased from Roche.
(§2) Methods: 10 male C57 mice of 6-8 weeks of 20-22 g are used as normal control group (1). Detect the fasting glucose of male KK-A^y mice, which are 6-8 weeks with the weight of 28-32 g, and divide them into different groups according to the blood sugar level and body weight: (2) model control group, (3) which is administered by compound S13 with the dose of 1 mg/kg, (4) which is administered by compound S13 with the dose of 5 mg/kg, (5) which is administered by compound S13 with the dose of 10 mg/kg, (6) which is administered by compound S13 with the dose of 20 mg/kg, (7) which is administered by compound S28 with the dose of 1 mg/kg, (8) which is administered by compound S28 with the dose of 5 mg/kg, (9) which is administered by compound S28 with the dose of 10 mg/kg, (10) which is administered by compound S28 with the dose of 20 mg/kg, (11) which is administered by metformin with the dose of 8 g/kg, (12) which is administered by compound S13 with the dose of 2.5 mg/kg and metformin with the dose of 4 g/kg, (13) which is administered by compound S13 with the dose of 5 mg/kg and metformin with the dose of 4 g/kg, (14) which is administered by compound S28 with the dose of 2.5 mg/kg and metformin with the dose of […], (15) which is administered by compound S28 with the dose of 5 mg/kg and metformin with the dose of […]. Each group has 8 mice, and is administrated successively for 3 weeks. Model control group is given with equal amounts of 0.5% CMC-Na.
(§3) 2) Effects on body weight and blood sugar: the body weight of mice are recorded at the 2th, 5th, 8th, 11th, 14th, 17th, 20th day after administration, and blood is collected from tip of tail to detect the blood sugar level (see table 10).

[2] = tested on: Wister rats fed with choline deficient diet; assay: non-alcohol fatty liver disease in rats fed choline deficient (high-fat) diet; conditions: for ALT / HDL-C / LDL-C / Liver index / TC / TG: 4 weeks
Procedure: Serum total cholesterol kit (batch number 20131112), low density lipoprotein LDL-C kit (batch number 20140114), high density lipoprotein HDL-C kit (batch number 20140413), triglyceride TG kit (batch number 20131226) and glutamic-pyruvic transaminase ALT kit (batch number 20131006) are purchased from Nanjing Jiancheng Bioengineering Institute.
Methods: male SPF level Wister rats are randomly divided into groups: (1) normal group (2) model control group (3) which is administered by compound S13 with the dose of 10 mg/kg (4) which is administered by compound S13 with the dose of 20 mg/kg (5) which is administered by compound S28 with the dose of 10 mg/kg […] which is administered by compound S28 with the dose of 20 mg/kg. Each group has 10 mice. The mice of normal group are fed with standard diet, the mice of other groups are fed with choline deficient diet (high-fat diet). Food intake and body weight are detected. Feeding with choline deficient diet are considered as a frequently-used hepatic adipose infiltration modeling method of rodent, which can induce the denaturation of hepatocyte, hepatitis and liver injury, at the same time the increase of blood lipid level can induce the insulin resistance.
After being fed with high-fat diet for 8 weeks, the mice of treated group are given drugs for 4 weeks successively. Model group and normal group are given with equal amounts of 0.5% CMC-Na. After administration of medicine for 4 weeks, the rats are executed under anesthesia, and then hepatic tissue and blood are collected.
2) Contents of serum total cholesterol, low density lipoprotein, high density lipoprotein and triglyceride.
3) Contents of glutamic-pyruvic transaminase.

[3] = tested on: hyperglycemia KK-A^y mice; assay: blood sugar of hyperglycemia KK-A^y mice; design: blood sugar: unit not given here; conditions: for blood sugar at the 1st day, 0: 1st day 0 h; for blood sugar at the 1st day, 30 min: 1st day 30 min after intragastric administration
Procedure: as §1, §2
1) Effects of drugs on blood sugar: at the first day after administration, the mice are fasted for 2 hours and blood is collected (0 h) to detect the fasting blood sugar. After the compound is given to the mice by intragastric administration for 30 min, blood is collected from tip of tail to detect the blood sugar level.
as §3

[4] = 2st day, 20 mg/kg, groups 6, 10
[5] = 5st day, 20 mg/kg, groups 6, 10
[6] = 8st day, 20 mg/kg, groups 6, 10
[7] = 11st day, 10 mg/kg, groups 5, 9
[8] = 11st day, 20 mg/kg, groups 6, 10
[9] = 14st day, 10 mg/kg, groups 5, 9
[10] = 14st day, 20 mg/kg, groups 6, 10
[11] = 17st day, 10 mg/kg, groups 5, 9
[12] = 17st day, 20 mg/kg, groups 6, 10
[13] = 20st day, 10 mg/kg, groups 5, 9
[14] = 20st day, 20 mg/kg, groups 6, 10

Q: For `CC(C)=CCC/C(C)=C/CCC1=C[C@H](c2cc(O)ccc2O)OC1=O` [S13, (R,E)-5-(2,5-dihydroxyphenyl)-3-(4,8-dimethylnona-3,7-dien-1-yl)furan-2(5H)-one], which “effect on body weight (in words)” value [1] is on record?
A: Its value is “litter effect on body weight”.

Q: And the Body weight ([1]; 2st day, 1 mg/kg, groups 3, 7)?
A: The Body weight was 30.6 g.

Q: What about the Body weight ([1]; 2st day, 5 mg/kg, groups 4, 8) of the same molecule?
A: Its Body weight is 30.7 g.

Q: What about the Body weight ([1]; 2st day, 10 mg/kg, groups 5, 9) of the same molecule?
A: The Body weight was 30.3 g.

Q: What about the Body weight [1, 4] of the same molecule?
A: The Body weight was 30.5 g.

Q: And the Body weight ([1]; 5st day, 1 mg/kg, groups 3, 7)?
A: Its Body weight is 30.8 g.

Q: What about the Body weight ([1]; 5st day, 5 mg/kg, groups 4, 8) of the same molecule?
A: The Body weight was 30.8 g.

Q: And the Body weight ([1]; 5st day, 10 mg/kg, groups 5, 9)?
A: Its Body weight is 30.2 g.

Q: What about the Body weight [1, 5] of the same molecule?
A: Its Body weight is 30.3 g.

Q: And the Body weight ([1]; 8st day, 1 mg/kg, groups 3, 7)?
A: The Body weight was 30.5 g.

Q: What about the Body weight ([1]; 8st day, 5 mg/kg, groups 4, 8) of the same molecule?
A: Its Body weight is 30.9 g.

Q: And the Body weight ([1]; 8st day, 10 mg/kg, groups 5, 9)?
A: The Body weight was 30.3 g.

Q: What about the Body weight [1, 6] of the same molecule?
A: Its Body weight is 30.2 g.

Q: What about the Body weight ([1]; 11st day, 1 mg/kg, groups 3, 7) of the same molecule?
A: The Body weight was 30.5 g.

Q: And the Body weight ([1]; 11st day, 5 mg/kg, groups 4, 8)?
A: Its Body weight is 31.2 g.

Q: And the Body weight [1, 7]?
A: The Body weight was 31.5 g.

Q: And the Body weight [1, 8]?
A: The Body weight was 30.1 g.

Q: What about the Body weight ([1]; 14st day, 1 mg/kg, groups 3, 7) of the same molecule?
A: The Body weight was 31.2 g.

Q: What about the Body weight ([1]; 14st day, 5 mg/kg, groups 4, 8) of the same molecule?
A: Its Body weight is 31.5 g.

Q: And the Body weight [1, 9]?
A: Its Body weight is 32.5 g.

Q: What about the Body weight [1, 10] of the same molecule?
A: The Body weight was 30.4 g.

Q: What about the Body weight ([1]; 17st day, 1 mg/kg, groups 3, 7) of the same molecule?
A: The Body weight was 31.8 g.

Q: And the Body weight ([1]; 17st day, 5 mg/kg, groups 4, 8)?
A: The Body weight was 31.5 g.

Q: And the Body weight [1, 11]?
A: Its Body weight is 32.1 g.

Q: What about the Body weight [1, 12] of the same molecule?
A: The Body weight was 30 g.

Q: And the Body weight ([1]; 20st day, 1 mg/kg, groups 3, 7)?
A: The Body weight was 32.1 g.

Q: What about the Body weight ([1]; 20st day, 5 mg/kg, groups 4, 8) of the same molecule?
A: The Body weight was 31.6 g.

Q: And the Body weight [1, 13]?
A: Its Body weight is 32.5 g.

Q: And the Body weight [1, 14]?
A: Its Body weight is 30.1 g.

Q: What about the “effect on liver index of fatty liver rats (in words)” value [2] of the same molecule?
A: Its value is “effectively decrease the liver index of fatty liver rats”.

Q: What about the ALT ([2]; 10 mg/kg) of the same molecule?
A: The ALT was 48.24** U/L.

Q: And the HDL-C ([2]; 10 mg/kg)?
A: Its HDL-C is 0.57* mmol/L.

Q: What about the LDL-C ([2]; 10 mg/kg) of the same molecule?
A: Its LDL-C is 0.83* mmol/L.

Q: What about the Liver index ([2]; 10 mg/kg) of the same molecule?
A: Its Liver index is 2.85**.

Q: And the TC ([2]; 10 mg/kg)?
A: The TC was 1.81** mmol/L.

Q: What about the TG ([2]; 10 mg/kg) of the same molecule?
A: The TG was 1.21** mmol/L.

Q: What about the ALT ([2]; 20 mg/kg) of the same molecule?
A: The ALT was 33.56** U/L.

Q: And the HDL-C ([2]; 20 mg/kg)?
A: The HDL-C was 0.72** mmol/L.

Q: What about the LDL-C ([2]; 20 mg/kg) of the same molecule?
A: Its LDL-C is 0.71** mmol/L.

Q: What about the Liver index ([2]; 20 mg/kg) of the same molecule?
A: The Liver index was 2.47**.

Q: And the TC ([2]; 20 mg/kg)?
A: Its TC is 1.37** mmol/L.

Q: What about the TG ([2]; 20 mg/kg) of the same molecule?
A: Its TG is 1.08** mmol/L.

Q: What about the “effect on blood sugar of hyperglycemia mice (in words)” value [3] of the same molecule?
A: The value was “significant effects on blood sugar of hyperglycemia mice”.

Q: What about the “blood sugar at the 1st day, 0” value ([3]; 1 mg/kg, groups 3, 7) of the same molecule?
A: Its value is 14.7.

Q: And the “blood sugar at the 1st day, 0” value ([3]; 5 mg/kg, groups 4, 8)?
A: Its value is 14.8.

Q: What about the “blood sugar at the 1st day, 0” value ([3]; 10 mg/kg, groups 5, 9) of the same molecule?
A: Its value is 14.9.

Q: And the “blood sugar at the 1st day, 0” value ([3]; 20 mg/kg, groups 6, 10)?
A: The value was 14.7.

Q: And the “blood sugar at the 1st day, 30 min” value ([3]; 1 mg/kg, groups 3, 7)?
A: Its value is 11.1.

Q: And the “blood sugar at the 1st day, 30 min” value ([3]; 5 mg/kg, groups 4, 8)?
A: Its value is 9.2.

Q: And the “blood sugar at the 1st day, 30 min” value ([3]; 10 mg/kg, groups 5, 9)?
A: The value was 9.21.

Q: What about the “blood sugar at the 1st day, 30 min” value ([3]; 20 mg/kg, groups 6, 10) of the same molecule?
A: Its value is 6.24.

Q: What about the blood sugar ([3]; 2st day, 1 mg/kg, groups 3, 7) of the same molecule?
A: The blood sugar was 17.3.

Q: And the blood sugar ([3]; 2st day, 5 mg/kg, groups 4, 8)?
A: Its blood sugar is 10.1.

Q: And the blood sugar ([3]; 2st day, 10 mg/kg, groups 5, 9)?
A: The blood sugar was 13.98.

Q: And the blood sugar [3, 4]?
A: The blood sugar was 13.2.

Q: And the blood sugar ([3]; 5st day, 1 mg/kg, groups 3, 7)?
A: The blood sugar was 14.1.

Q: And the blood sugar ([3]; 5st day, 5 mg/kg, groups 4, 8)?
A: Its blood sugar is 10.8.

Q: What about the blood sugar ([3]; 5st day, 10 mg/kg, groups 5, 9) of the same molecule?
A: Its blood sugar is 13.5.

Q: What about the blood sugar [3, 5] of the same molecule?
A: Its blood sugar is 12.9.

Q: And the blood sugar ([3]; 8st day, 1 mg/kg, groups 3, 7)?
A: The blood sugar was 13.8.

Q: And the blood sugar ([3]; 8st day, 5 mg/kg, groups 4, 8)?
A: The blood sugar was 7.1.

Q: What about the blood sugar ([3]; 8st day, 10 mg/kg, groups 5, 9) of the same molecule?
A: The blood sugar was 14.1.

Q: What about the blood sugar [3, 6] of the same molecule?
A: Its blood sugar is 12.8.

Q: And the blood sugar ([3]; 11st day, 1 mg/kg, groups 3, 7)?
A: Its blood sugar is 15.1.

Q: And the blood sugar ([3]; 11st day, 5 mg/kg, groups 4, 8)?
A: The blood sugar was 8.2.

Q: And the blood sugar [3, 7]?
A: The blood sugar was 14.2.

Q: What about the blood sugar [3, 8] of the same molecule?
A: Its blood sugar is 12.8.

Q: And the blood sugar ([3]; 14st day, 1 mg/kg, groups 3, 7)?
A: Its blood sugar is 12.3.

Q: What about the blood sugar ([3]; 14st day, 5 mg/kg, groups 4, 8) of the same molecule?
A: The blood sugar was 8.2.

Q: What about the blood sugar [3, 9] of the same molecule?
A: The blood sugar was 13.9.

Q: What about the blood sugar [3, 10] of the same molecule?
A: The blood sugar was 12.5.

Q: What about the blood sugar ([3]; 17st day, 1 mg/kg, groups 3, 7) of the same molecule?
A: The blood sugar was 13.1.

Q: What about the blood sugar ([3]; 17st day, 5 mg/kg, groups 4, 8) of the same molecule?
A: Its blood sugar is 8.2.

Q: What about the blood sugar [3, 11] of the same molecule?
A: Its blood sugar is 14.5.

Q: And the blood sugar [3, 12]?
A: The blood sugar was 12.3.

Q: And the blood sugar ([3]; 20st day, 1 mg/kg, groups 3, 7)?
A: Its blood sugar is 12.8.

Q: What about the blood sugar ([3]; 20st day, 5 mg/kg, groups 4, 8) of the same molecule?
A: The blood sugar was 10.1.

Q: What about the blood sugar [3, 13] of the same molecule?
A: Its blood sugar is 14.59.

Q: And the blood sugar [3, 14]?
A: Its blood sugar is 12.5.
